Series [1] deals with Mobilized peripheral blood CD34(+) cells. The series is described as follows: Reversibility (wash-out) of compound effect on CD34+CD45RA− percentage (FIG. 2). In kind it is cell-based, human. Particulars: for reversibility of effect on CD34+CD45RA− percentage after wash-out: 7 days with compound, washed, 8 additional days. As to the method: FIG. 2: Effect of compound 1 is reversible. Mobilized peripheral blood CD34(+) cells cultured for 7 days with compound 1 (shown in green) or vehicle (DMSO, shown in blue) were washed and re-plated in fresh media with or without Compound addition (solid vs dashed line respectively). Cells were cultured for 8 additional days and the percentage of CD34+CD45RA− was monitored.
This effect is best shown in FIG. 2 where CD34+ mobilized peripheral blood cells are cultured in the presence of Compound 1 for up to 7 days, at which time the Compound 1 is removed by washing the cells.

For series [2], the system named is AhR-responsive genes (CYP1B1 and AhRR). The series is described as follows: Real-time quantitative RT-PCR for AhR-responsive genes (FIG. 1). The class given is cell-based, human. Particulars: mPB CD34(+) cells, 12 hours, Compound 1 500 nM. On the procedure:
Mobilized peripheral blood CD34(+) cells were cultured for 12 hours with DMSO, SR1 [AhR antagonist 1000 nM], and Compound 1 [500 nM], cells were harvested and real-time quantitative RT-PCR for AhR-responsive genes (CYP1B1 and AhRR) was performed.

Series [3] has as its system CD34+ cord blood cells. The series is described as follows: FACS analysis of differentiation of CD34+ cord blood cells (FIG. 4B-4D). Particulars: FACS / cytological analysis. For orientation: Flow cytometry measures light scatter and fluorescence of single cells or particles in a stream.
The test system of series [4] is CD34+CD45RA− cord blood cells. The series is described as follows: Ex vivo expansion of cord blood-derived CD34+ and CD34+CD45RA− cells (FIG. 5B, 5C). The class given is cell-based, human.
Series [5] has as its system CD34+ cells from mobilized PB. The series is described as follows: Long term 10-day ex vivo culture of CD34+ cells from mobilized PB. The class given is cell-based, human. As to the method: The following biological assays were used to assess the effect of the compounds of the invention on hematopoietic stem cell expansion. Culture medium: The culture medium used consisted of serum-free medium supplemented with the following recombinant cytokines: interleukin-6, thrombopoietin, Flt-3 ligand, and stem cell factor, each at a final concentration of 100 ng/ml, in the presence of vehicle (DMSO), positive control (SR1), or compound of the invention or a combination of compounds. Cell Culture: CD34+ cell purity of initial harvests was higher than 90%, as determined by flow cytometry. The CD34+CD45RA− subpopulation reached purity levels higher than 70%. Cells were plated at 40,000 cells/ml and incubated for 7 to 12-days at 37° C. in 5% CO2. For long term cultures, 200,000 CD34+ cells/ml from mobilized PB were plated with serum free media supplemented with interleukin-6, thrombopoietin, Flt3 ligand, and stem cell factor, each at a final concentration of 100 ng/ml, in the presence of vehicle (DMSO), positive control, or a compound of the invention at 500 nM. After a 10-day ex vivo culture Compound 1 (Table 1) promoted more than 7-fold expansion of MNCs, more than 5-fold increase in CD34+ cells over input values (day 0), and almost 4-fold increase over the values determined for vehicle. After 10 days of ex vivo culture, Compound 1-treated cells retained a high level of CD34 expression (65.8±5.5%) compared to cells cultured with vehicle (DMSO) (22.8±0.9%). Moreover, only Compound 1-treated cells retained the highest expression of CD34+CD45RA− population (24.8±0.9%) compared to that of vehicle (4.7±0.4%). The numbers of CD34+CD45RA− cultured with Compound 1 increased by almost 3-fold compared to that of vehicle and 7-fold more than that of input. Finally, the compounds of the invention were assayed in a dose-response format (concentrations ranging from 1 nM to 5000 nM) to determine the effective concentration that produced a 50% increase in the number of CD34+CD45RA− cells compared to vehicle condition.

Series [6] has as its system CD34+ CB cells transplanted in NSG mice. Briefly: Engraftment of cultured CD34+ cord blood cells in NSG mice (FIG. 7). Particulars: outcome of 5,000 CD34+ CB cells, 7 days culture, 8-weeks post transplantation (FIG. 7A).
Source text: These experiments were done in short term cultures i.e. 7 days.
Series [7] has as its system CD34+ mobilized peripheral blood cells. Briefly: FACS analysis of differentiation of CD34+ mobilized peripheral blood cells (FIG. 4A). In kind it is cell-based, human. The source says:
FIG. 4A illustrates the impact of Compound 1 on mobilized peripheral blood cell differentiation. Following a 7 day expansion, a relatively pure (>85% CD34^+) population of mobilized peripheral blood was exposed to control the (DMSO) or Compound 1 or SR1 or Compound 1+SR1.

Series [8] deals with primary human mobilized CD34+ cells. Briefly: High throughput screening assay on primary human mobilized CD34+ cells, with secondary screen. In kind it is cell-based. From the text: To identify novel putative agonists of HSC self-renewal, we have adapted a high throughput based-screening assay to test a library of small molecule compounds (5,280 low molecular weight compounds) on primary human mobilized CD34+ cells. It is to be understood that the same approach applies to CD34+ cells from the various sources known by a person skilled in the art to isolate CD34+ cells. Mononuclear cells were stained with Mouse antihuman CD34+APC (from BD Pharmingen) and subsequently magnetically labeled with Anti-APC magnetic MicroBeads (from MACS, Miltenyi Biotec). The magnetically labeled cells were retained using AutoMACS column. […]
In a 384-well plate, 2000 CD34^+ cells/well were cultured in 50 μl medium containing 1 μM of test compounds or 0.1% DMSO (vehicle). The proportion of CD34^+CD45RA^− cells was determined at the start of the experiment and after a 7-day incubation. Six out of the 5,280 compounds of different chemical backgrounds initially tested promoted CD34+CD45RA− cell expansion, and seventeen (17) enhanced differentiation as determined by the increase in proportions of CD34−CD45RA+ cells compared to control (DMSO). The six compounds promoting expansion of the CD34+CD45RA− cell population were re-analyzed in a secondary screen. […]

“Also recorded” adds a separate entry of the source. Bounds are passed on as bounds.

As for `COC(=O)c1ccc2c(c1)[nH]c1ncnc(NCCCN3CCCCC3)c12` [Compound 1, Methyl 4-((3-(piperidin-1-yl)propyl)amino)-9H-pyrimido[4,5-b]indole-7-carboxylate], in series [1], the “reversibility of effect on CD34+CD45RA− percentage after wash-out” value is on record as “rapidly reversible”. Moreover, the “reversibility of effect on CD34+CD45RA− percentage after wash-out” value in series [1] (listed as compound 1) was “reversible”. The “compound-free exposure until cells acquired differentiation markers as in control cultures” value in series [1] (after wash-out at day 7) is on record as at most 2 days. Besides, the “suppression of AhR-downstream target genes (CYP1B1 and AhRR)” value in series [2] is given as “does not suppress AhR-downstream target genes”. In addition, the “differentiation of CD34+ cord blood cells” value in series [3] is given as “reduces differentiation”. For the same molecule, in series [4] (7-day incubation), the “expansion of cord blood-derived CD34+ and CD34+CD45RA− cells” value was “enhances expansion”. Moreover, the “in vitro expansion of cord blood-derived CD34+ and CD34+CD45RA− cells” value in series [4] (12-day incubation) is “positive effect”. Moreover, the “expansion of CD34+CD45RA− cord blood cells” value in series [4] (seven day period, DMSO about fifteen fold) was 30-40 fold. Besides, in series [5] (10-day ex vivo culture, 500 nM), the “expansion of MNCs” value is on record as “more than 7 fold”, the “increase in CD34+ cells over input values (day 0)” value is “more than 5 fold”, the “increase in CD34+ cells over the values determined for vehicle” value is listed as about 4 fold and the “numbers of CD34+CD45RA− compared to input” value was determined as 7 fold. Further, the “numbers of CD34+CD45RA− compared to vehicle” value in series [5] (10-day ex vivo culture, 500 nM) is reported as about 3 fold. Besides, the “expression of CD34+CD45RA− population” value in series [5] (after 10 days of ex vivo culture, vehicle 4.7±0.4%) was determined as 24.8±0.9%. Also, in series [5] (after 10 days of ex vivo culture, vehicle 22.8±0.9%), the “level of CD34 expression” value worked out at 65.8±5.5%. Besides, the “human CD45+ engraftment / reconstitution activity” value in series [6] is reported as “clear effect on reconstitution activity”. Also, in series [6] (listed as compound 1), the “human CD45+ engraftment / reconstitution activity” value was “human CD45+ engraftment”. For the same molecule, in series [7] (7 day expansion, optimal levels, vs DMSO control), the “loss of CD34 cell surface expression” value is given as “partly abrogated”. Besides, the “differentiation of CD34+ mobilized peripheral blood cells” value in series [7] (FACS / cytological analysis) is “prevent cell differentiation; also recorded: reduces differentiation”. Further, the “CD34+ cell population compared to DMSO treated control cells” value in series [7] (FACS analysis) is recorded as “able to expand CD34+ cell population”. Besides, the “CD34+CD45RA− cells vs SR1 or control cultures” value in series [7] (FIG. 4A, 4B bottom panels) is given as “more numerous”. Besides, the “aryl hydrocarbon receptor (AhR) antagonism” value in series [8] is given as “not being aryl hydrocarbon receptor (AhR) antagonists”. Moreover, in series [8] (7-day incubation), the “expansion of MNCs including CD34+ cells” value is listed as “promote the expansion of MNCs including CD34+ cells”.

For the origin of these results see patent publication US9409906B2, “Pyrimido[4,5-B]indole derivatives and use thereof in the expansion of hematopoietic stem cells” (UNIVERSITÉ DE MONTRÉAL, priority 2012, dated 2016).
